Molecules are shown by their SMILES. Some results are limits rather than exact numbers.

In general, IC50 refers to the concentration needed to halve the response being measured.

For this test, the target named is T1, human acetyl-CoA carboxylase 2 (ACC2) (Homo sapiens, UniProt O00763).
T1 construct: The cDNA encoding amino acids 144 to 2458 of human acetyl-CoA carboxylase 2; made in house; host or cells: Sf9 insect cells (baculovirus, pFastBac1)
T1 sequence (O00763 144-2458): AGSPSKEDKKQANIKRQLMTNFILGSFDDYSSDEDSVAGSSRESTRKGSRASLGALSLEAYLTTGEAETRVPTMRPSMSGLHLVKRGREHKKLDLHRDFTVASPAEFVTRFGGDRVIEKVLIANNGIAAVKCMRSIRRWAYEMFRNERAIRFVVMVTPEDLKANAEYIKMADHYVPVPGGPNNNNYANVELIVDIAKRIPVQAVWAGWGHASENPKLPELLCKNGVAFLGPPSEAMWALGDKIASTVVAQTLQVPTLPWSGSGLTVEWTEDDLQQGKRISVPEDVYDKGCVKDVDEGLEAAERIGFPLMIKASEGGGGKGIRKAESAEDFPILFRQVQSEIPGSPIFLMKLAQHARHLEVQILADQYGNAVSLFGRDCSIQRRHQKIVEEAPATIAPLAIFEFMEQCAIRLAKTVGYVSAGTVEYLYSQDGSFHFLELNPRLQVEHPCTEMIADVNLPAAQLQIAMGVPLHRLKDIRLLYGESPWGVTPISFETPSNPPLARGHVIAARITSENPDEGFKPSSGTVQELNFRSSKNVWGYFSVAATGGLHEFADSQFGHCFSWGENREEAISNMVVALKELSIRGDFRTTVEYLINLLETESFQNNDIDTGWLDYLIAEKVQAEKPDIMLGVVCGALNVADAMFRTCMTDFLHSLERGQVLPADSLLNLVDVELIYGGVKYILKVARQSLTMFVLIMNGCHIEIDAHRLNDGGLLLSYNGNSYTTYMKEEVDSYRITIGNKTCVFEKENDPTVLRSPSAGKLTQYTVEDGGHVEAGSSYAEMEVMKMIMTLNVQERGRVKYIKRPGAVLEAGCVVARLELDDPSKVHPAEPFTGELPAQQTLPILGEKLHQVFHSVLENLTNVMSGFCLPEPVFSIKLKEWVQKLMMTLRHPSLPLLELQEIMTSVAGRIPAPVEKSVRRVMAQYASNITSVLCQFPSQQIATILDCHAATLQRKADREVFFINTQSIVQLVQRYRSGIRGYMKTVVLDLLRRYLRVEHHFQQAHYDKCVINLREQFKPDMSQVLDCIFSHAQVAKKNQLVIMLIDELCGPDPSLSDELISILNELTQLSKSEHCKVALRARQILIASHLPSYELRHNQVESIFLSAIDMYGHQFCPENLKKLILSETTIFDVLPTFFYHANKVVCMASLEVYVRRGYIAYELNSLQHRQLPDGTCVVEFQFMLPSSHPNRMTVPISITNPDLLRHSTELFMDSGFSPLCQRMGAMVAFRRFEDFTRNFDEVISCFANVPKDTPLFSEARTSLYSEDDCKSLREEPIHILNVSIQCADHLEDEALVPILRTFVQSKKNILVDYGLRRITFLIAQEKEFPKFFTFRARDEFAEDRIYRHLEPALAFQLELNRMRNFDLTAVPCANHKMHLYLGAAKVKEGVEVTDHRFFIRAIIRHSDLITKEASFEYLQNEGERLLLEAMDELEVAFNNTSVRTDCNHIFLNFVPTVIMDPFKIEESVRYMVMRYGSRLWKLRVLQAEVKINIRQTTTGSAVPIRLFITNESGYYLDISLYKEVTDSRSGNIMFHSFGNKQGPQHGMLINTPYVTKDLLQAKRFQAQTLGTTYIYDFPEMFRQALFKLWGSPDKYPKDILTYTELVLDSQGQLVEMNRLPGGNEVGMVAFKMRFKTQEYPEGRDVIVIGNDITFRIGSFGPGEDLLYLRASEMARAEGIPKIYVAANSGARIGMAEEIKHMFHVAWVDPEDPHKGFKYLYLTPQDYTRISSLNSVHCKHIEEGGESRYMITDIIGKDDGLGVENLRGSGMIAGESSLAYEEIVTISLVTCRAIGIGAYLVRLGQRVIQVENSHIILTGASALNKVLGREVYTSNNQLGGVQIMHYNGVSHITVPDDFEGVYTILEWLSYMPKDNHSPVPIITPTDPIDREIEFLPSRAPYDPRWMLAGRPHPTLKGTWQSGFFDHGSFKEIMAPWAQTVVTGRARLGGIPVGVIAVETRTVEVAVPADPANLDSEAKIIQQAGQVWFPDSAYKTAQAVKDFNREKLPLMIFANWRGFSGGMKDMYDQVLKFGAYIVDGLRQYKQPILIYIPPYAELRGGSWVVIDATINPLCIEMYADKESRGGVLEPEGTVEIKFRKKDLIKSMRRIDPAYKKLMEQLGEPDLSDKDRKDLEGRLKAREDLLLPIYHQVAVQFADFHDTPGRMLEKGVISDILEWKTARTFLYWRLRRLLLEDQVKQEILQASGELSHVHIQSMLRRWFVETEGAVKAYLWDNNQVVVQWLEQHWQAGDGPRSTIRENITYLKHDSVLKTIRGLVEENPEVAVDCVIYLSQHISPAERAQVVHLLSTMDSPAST
Description: Acetyl-CoA carboxylase enzyme assay (malonyl-CoA formation by LC/MS/MS). Type of test: biochemical. Conditions: recombinant human ACC2 (aa 144-2458); read-out: IC50 ACC2. In a few lines:
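Malonyl-CoA formation was read by LC/MS/MS MRM against a [13C3]-malonyl-CoA internal standard, after acetic acid quench. The enzyme was baculovirus/Sf9-expressed human ACC2 residues 144–2458, given 15 minutes room-temperature compound preincubation in HEPES pH 7.5 buffer with MgCl2, citrate and DTT. Substrate solution held 50 μM acetyl-CoA, 120 μM ATP and 2 mM KHCO3.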
Regarding `CC(C)OC(=O)c1ccc(NS(=O)(=O)c2ccc3[nH]c(-c4ccc(CN5CCOCC5)cc4)nc3c2)cc1` [Example 562, isopropyl 4-(2-(4-(morpholinomethyl)phenyl)-1H-benzo[d]imidazole-5-sulfonamido)benzoate], the IC50 is 676 nM.

Regarding `COCCc1ccc(-c2cc3ccc(S(=O)(=O)N[C@H]4CC[C@H](C(=O)N5CCOC[C@@H]5C5CC5)CC4)cc3[nH]2)cc1` [Example 470, N-((1S,4r)-4-((S)-3-cyclopropylmorpholine-4-carbonyl)cyclohexyl)-2-(4-(2-methoxyethyl)phenyl)-1H-indole-6-sulfonamide], the IC50 was under 10 nM. As for `Cc1ccc2cc(S(=O)(=O)N[C@H]3CC[C@H](C(=O)N[C@H](C)c4ccc(F)cc4)CC3)ccc2n1` [Example 72, (1r,4R)-N-((R)-1-(4-fluorophenyl)ethyl)-4-(2-methylquinoline-6-sulfonamido)cyclohexanecarboxamide], the figure is 115 nM. For the compound `CC(O)c1ccc(-c2nc3cc(S(=O)(=O)N[C@H]4CC[C@H](C(=O)N[C@H](C)c5ccccc5)CC4)ccc3[nH]2)cc1` (stereo partly drawn) [Example 573, (1r,4R)-4-(2-(4-(1-hydroxyethyl)phenyl)-1H-benzo[d]imidazole-5-sulfonamido)-N-((R)-1-phenylethyl)cyclohexanecarboxamide], the IC50 is under 10 nM. Turning to `C[C@H]1CCCN1C(=O)[C@H]1CC[C@H](NS(=O)(=O)c2ccc3ccccc3c2)CC1` [Example 146, N-((1S,4r)-4-((S)-2-methylpyrrolidine-1-carbonyl)cyclohexyl)naphthalene-2-sulfonamide], the IC50 came out at 952 nM.

Consider `COc1ccc(Nc2nc3cc(S(=O)(=O)Nc4ccc(-c5nnc(C(C)C)o5)cc4)ccc3[nH]2)cc1` [Example 602, N-(4-(5-isopropyl-1,3,4-oxadiazol-2-yl)phenyl)-2-(4-methoxyphenylamino)-1H-benzo[d]imidazole-5-sulfonamide], for which the IC50 came out at 536 nM. Next, `Cc1ccccc1-c1cc2ccc(S(=O)(=O)N[C@H]3CC[C@H](C(=O)N4CCOCC4)CC3)cc2[nH]1` [Example 136, N-((1R,4r)-4-(morpholine-4-carbonyl)cyclohexyl)-2-o-tolyl-1H-indole-6-sulfonamide]: 187 nM.

Take `C[C@@H](NC(=O)[C@H]1CC[C@H](NS(=O)(=O)c2ccc3nc(NCCC(=O)O)ccc3c2)CC1)c1ccc(F)cc1` [Example 203, 3-(6-(N-((1R,4r)-4-((R)-1-(4-fluorophenyl)ethylcarbamoyl)cyclohexyl)sulfamoyl)quinolin-2-ylamino)propanoic acid]: the IC50 came out at 305 nM. As for `O=C(Nc1cccc(C(F)(F)F)c1)[C@H]1CC[C@H](NS(=O)(=O)c2ccc3[nH]c(-c4ccccc4)nc3c2)CC1` [Example 648, (1r,4r)-4-(2-phenyl-1H-benzo[d]imidazole-5-sulfonamido)-N-(3-(trifluoromethyl)phenyl)cyclohexanecarboxamide], the figure is 1840 nM. As to `Cn1c(-c2ccccc2)c(Cl)c2ccc(S(=O)(=O)N[C@H]3CC[C@H](C(=O)N4CCCCC4)CC3)cc21` [Example 374, 3-chloro-1-methyl-2-phenyl-N-((1r,4r)-4-(piperidine-1-carbonyl)cyclohexyl)-1H-indole-6-sulfonamide], the IC50 was 20 nM.

On to `CC(C)OC(=O)c1ccc(NS(=O)(=O)c2ccc3nc(-c4cccc(F)c4)[nH]c3c2)cc1` [Example 496, isopropyl 4-(2-(3-fluorophenyl)-1H-benzo[d]imidazole-6-sulfonamido)benzoate], for which the IC50 is 2340 nM. For `C[C@@H](NC(=O)[C@H]1CC[C@H](NS(=O)(=O)c2cnc3c(c2)N(C)C2CCCCC2N3C)CC1)c1ccc(F)cc1` (stereo partly drawn) [Example 134, (1r,4R)-4-(5,10-dimethyl-5,5a,6,7,8,9,9a,10-octahydropyrido[3,2-b]quinoxaline-3-sulfonamido)-N((R)-1-(4-fluorophenyl)ethyl)cyclohexanecarboxamide], the IC50 was 28 nM.

For the origin of these results see patent US8697739B2, “Bicyclic acetyl-CoA carboxylase inhibitors and uses thereof” (Novartis AG, priority 2010, dated 2014).
